The numbers were not newly measured in patent US8568779B2, “Method for producing coenzyme Q10 particle” (Kaneka Corporation, priority 2007, dated 2013), which cites them from elsewhere.

The conditions of this data set: composition containing reduced coenzyme Q10 versus oxidized coenzyme Q10 alone.

With `COc1c(O)c(C)c(C/C=C(\C)CC/C=C(\C)CC/C=C(\C)CC/C=C(\C)CC/C=C(\C)CC/C=C(\C)CC/C=C(\C)CC/C=C(\C)CC/C=C(\C)CCC=C(C)C)c(O)c1OC` [reduced coenzyme Q10], the oral absorbability result is listed as “superior to conventional oxidized coenzyme Q10 alone”.
